Results taken from patent publication US6864247B2, “Therapeutic agents for glomerulosclerosis” (priority 1999, dated 2005).

How the values were obtained:
human mesangial cells = conditions: literature report; cited from earlier work
[1] = test system: rat model of anti-Thy 1 antibody-induced nephritis; assay: Urinary albumin by ELISA in anti-Thy 1 nephritis rat; format: in vivo; conditions: 0.4 μg/kg intravenously every two days; day 7; FIG. 13
Description: (§1) An anti-Thy 1 antibody (OX-7 purchased from CEDARLANE, Ontario, Canada) was administered into the tail vein of 6-week-old male Wistar rats at 1 mg/kg to induce anti-Thy 1 nephritis. Next day after OX-7 administration, 22-oxa-1α,25-dihydroxyvitamin D3 was intravenously administered at 0.4 μg/kg every two days, and on day 7 after administration, serum, urine and renal tissue were collected.
(§2) For comparison, 1α,25-dihydroxyvitamin D3 was administered in the same manner instead of 22-oxa-1α,25-dihydroxyvitamin D3. Rats not treated with the anti-Thy 1 antibody were used as normal controls. Rats treated with the anti-Thy 1 antibody alone without any vitamin D derivative were used as disease controls.
In addition, serum calcium (Ca) was determined with an autoanalyzer (AUTOANALYZER, HITACHI 7170, Tokyo, Japan) and urinary albumin (uALB) was determined with an ELISA kit NEPHRAT II (EXOCELL, INC) (FIGS. 12 and 13).

[2] = test system: rat model of anti-Thy 1 antibody-induced nephritis; assay: Renal histology (glomerular cell count, glomerulosclerosis index, glomerular volume) in rat model of anti-Thy 1 antibody-induced nephritis; format: in vivo; conditions: 0.4 μg/kg intravenously every two days from the day after OX-7, day 7; for glomerular cell count: FIG. 1; for glomerular volume: FIG. 3; for glomerulosclerosis index: PAM stained samples, FIG. 2
Text: The pharmacological effect of 22-oxa-1α,25-dihydroxyvitamin D3 used as an active ingredient in the present invention can be evaluated on a rat model of a anti-Thy 1 antibody-induced nephritis characterized by showing increased mesangial cell proliferation and mesangial matrix production after administration of an anti-Thy 1 antibody. The pharmacological effect of test compounds can be evaluated by administering an anti-Thy 1 antibody to such a rat model followed by the test compounds, collecting renal tissue at an appropriate time and determining the glomerular cell count or glomerulosclerosis index or determining the expression of collagen by a standard method such as an immunohistochemical technique.
as §1, §2
In the renal tissue, the glomerular cell count, glomerulosclerosis index and glomerular volume were determined (FIGS. 1, 2 and 3). The “glomerular cell count” was determined by counting every cell in every measurable glomerulus on hematoxylin-eosin stained samples. The “glomerulosclerosis index” was evaluated on PAM (periodic acid-methenamine-silver) stained samples according to the method of Raji et al. The “glomerular volume” was determined by using NIH image to calculate the volume of glomeruli read by an image analyzer.

type I collagen (ColI) = assay: Immunohistological examination of type I collagen expression in the mesangium, anti-Thy 1 nephritis rat; format: in vivo; conditions: 0.4 μg/kg intravenously every two days; day 7; immunohistochemistry
Description: as §1, §2
(§3) In the renal tissue, the expression of type I collagen (ColI) and type IV collagen (ColIV) in the mesangium was immunohistologically examined (FIGS. 4-11). Staining was performed on 4 μm sections using an ABC Elite peroxidase staining kit (Vector Lab., Burlingame, Calif., U.S.A.) according to the manufacturer's instructions. The primary antibodies used were a guinea pig anti-rat type I collagen antibody (Boehringer Ingelheim, Co., Ltd., Ingelheim, Germany) and a rabbit anti-rat type IV collagen antibody (Boehringer Ingelheim, Co., Ltd., Ingelheim, Germany).

type IV collagen (ColIV) = assay: Immunohistological examination of type IV collagen expression in the mesangium, anti-Thy 1 nephritis rat; format: in vivo; conditions: 0.4 μg/kg intravenously every two days; day 7; immunohistochemistry
Description: as §1, §2, §3

[3] = literature report; cited from earlier work
[4] = described in Japanese Patent No. 2854600; cited from earlier work

Structure (SMILES)	antiproliferative effect on human mesangial cells (human mesangial cells)	uALB levels (urinary albumin) [1]	glomerular cell count [2]	glomerular volume [2]	glomerulosclerosis index [2]	expression of ColI in the mesangium (type I collagen (ColI))	expression of ColIV in the mesangium (type IV collagen (ColIV))	differentiation-inducing effect [3]	hypercalcemia [3]	urinary protein excretion [4]
C=C1/C(=C\C=C2/CCC[C@]3(C)[C@@H]([C@H](C)CCCC(C)(C)O)CC[C@@H]23)C[C@@H](O)C[C@@H]1O [1α,25-dihydroxyvitamin D3, reference compound]	antiproliferative effect	significantly suppressed	significantly suppressed	no effect	significantly suppressed	clearly inhibited	clearly inhibited	–	–	–
C=C1/C(=C\C=C2/CCC[C@]3(C)[C@@H]([C@H](C)OCCC(C)(C)O)CC[C@@H]23)C[C@@H](O)C[C@@H]1O [22-oxa-1α,25-dihydroxyvitamin D3, 1α,3β-dihydroxy-20α-(3-hydroxy-3-methylbutyloxy)-9,10-seco-5,7,10 (19)-pregnatriene]	–	significantly suppressed	significantly suppressed	no effect	significantly suppressed	clearly inhibited	clearly inhibited	show a differentiation-inducing effect	without causing hypercalcemia	inhibits
